From ChEMBL document CHEMBL1145624, “The isolation, structure determination and cytotoxicity of the new fungal metabolite, trichodermamide C” (Bioorg Med Chem Lett, 2008)
Values after ≈ are worked out from the molar mass of the structure shown.

Columns and labels:
HCT-116 = assay: Cytotoxicity against human HCT116 cells after 24 hrs; type: functional, cell-based; conditions: HCT-116, 24 h
A549 = assay: Cytotoxicity against human A549 cells after 24 hrs; type: functional, cell-based; conditions: A549, 24 h

## COc1ccc2cc(N(C)C(=O)C3=NO[C@H]4[C@H](O)C=C[C@@H](O)[C@@]4(O)C3)c(=O)oc2c1OC [TRICHODERMAMIDE C]
HCT-116
  IC50: 0.68 µg/mL (≈ 1.52 µM)
A549
  IC50: 4.28 µg/mL (≈ 9.59 µM)
